Source: US11673910B2, “Macrolides with modified desosamine sugars and uses thereof” (Zikani Therapeutics, Inc., priority 2017, dated 2023)
≈ marks a conversion by molar mass, not a printed value.

Columns and labels:
Assay type in all cases: cell-based
[1] = system: E. coli strain MP-4; test: Broth dilution MIC determination (CLSI) against E. coli strain MP-4; details: Escherichia coli, MP4
Outline: (§1)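 Activity is reported in categories: ≤4 mg/L as "+++", 8 to below 32 mg/L as "++", and 32 mg/L or more as "+". Testing followed CLSI broth dilution procedures.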

[2] = system: K. pneumoniae strain MP-548; test: Broth dilution MIC determination (CLSI) against K. pneumoniae strain MP-548; details: Klebsiella pneumoniae, MP548
Outline: as §1

[3] = system: P. aeruginosa strain MP-3; test: Broth dilution MIC determination (CLSI) against P. aeruginosa strain MP-3; details: Pseudomonas aeruginosa, MP3
Outline: as §1

[4] = system: A. baumannii strain MP-15; test: Broth dilution MIC determination (CLSI) against A. baumannii strain MP-15; details: Acinetobacter baumannii, MP15
Outline: as §1

[5] = system: S. aureus strain MP-12; test: Broth dilution MIC determination (CLSI) against S. aureus strain MP-12; details: Staphylococcus aureus, MP12, strain MP-12
Outline: as §1

Row | SMILES | MIC [1] [µg/mL] | MIC [2] [µg/mL] | MIC [3] [µg/mL] | MIC [4] [µg/mL] | MIC [5] [µg/mL]
1 | CC[C@H]1OC(=O)[C@@](C)(F)C(=O)[C@H](C)[C@@H](O[C@@H]2OC(COC/C=C/c3cncnc3)CC(N(C)C)C2O)[C@](C)(OC)C[C@@H](C)C(=O)[C@H](C)[C@H]2NC(=O)O[C@@]21C (stereo partly shown) [Compound 105] | ≥ 32 | ≥ 32 | ≥ 32 | ≥ 32 | ≤ 4
2 | CCCCCCCCCCNCC1CC(N(C)C)C(O)[C@H](O[C@@H]2[C@@H](C)C(=O)C(C)C(=O)O[C@H](CC)[C@@]3(C)OC(=O)N[C@@H]3[C@@H](C)NC[C@H](C)C[C@@]2(C)OC)O1 (stereo partly shown) [Compound 55] | 8 to 32 (≈ 10.4 to 41.6 µM) | ≥ 32 | ≥ 32 | ≥ 32 | ≥ 32
3 | CC[C@H]1OC(=O)C(C)C(=O)[C@H](C)[C@@H](O[C@@H]2O[C@H]([C@H](C)N(C)C)CC(N(C)C)[C@H]2O)[C@](C)(OC)C[C@@H](C)CN[C@H](C)[C@H]2NC(=O)O[C@@]21C (stereo partly drawn) [Compound 175, 3-Descladinosyl-3-oxo-6-O-methyl-N9a-desmethyl-11,12-dideoxy-12,11-(oxycarbonylimino)-6′-((S)-(dimethylamino)ethyl) Azithromycin] | ≤ 4 | 8 to 32 (≈ 11.9 to 47.7 µM) | ≥ 32 | ≥ 32 | ≥ 32
4 | C=CC1CC(N(C)C)C(O)[C@H](O[C@@H]2[C@@H](C)C(=O)[C@]3(C)CCOC2(C)C[C@@H](C)CN[C@H](C)[C@H]2NC(=O)O[C@]2(C)[C@@H](CC)OC3=O)O1 (stereo partly shown) [Compound 211] | ≤ 4 | ≤ 4 | ≥ 32 | ≤ 4 | ≤ 4
5 | C#CCNCC1CC(N(C)C)C(O)[C@H](O[C@@H]2[C@@H](C)C(=O)C(C)C(=O)O[C@H](CC)[C@@]3(C)OC(=O)N[C@@H]3[C@@H](C)NC[C@H](C)C[C@@]2(C)OC)O1 (stereo partly shown) [Compound 53] | ≤ 4 | 8 to 32 (≈ 12 to 48 µM) | ≥ 32 | ≥ 32 | ≥ 32
6 | CC[C@H]1OC(=O)C(C)C(=O)[C@H](C)[C@@H](O[C@@H]2OC(CNCc3cccc(-c4cncnc4)c3)CC(N(C)C)C2O)[C@](C)(OC)C[C@@H](C)CN[C@H](C)[C@H]2NC(=O)O[C@@]21C (stereo partly shown) [Compound 20] | ≤ 4 | ≥ 32 | ≥ 32 | ≥ 32 | ≥ 32
7 | CC[C@H]1OC(=O)C(C)C(=O)[C@H](C)[C@@H](O[C@@H]2OC(CO)CC(N(C)C)C2O)[C@](C)(OC)C[C@@H](C)CN[C@H](C)[C@H]2NC(=O)O[C@@]21C (stereo partly shown) [Compound 57] | 8 to 32 (≈ 12.7 to 50.8 µM) | ≥ 32 | ≥ 32 | ≥ 32 | ≥ 32
8 | CC[C@H]1OC(=O)C(C)C(=O)[C@H](C)[C@@H](OC2OC(CNCC(C)(C)O)CC(N(C)C)C2O)[C@](C)(OC)C[C@@H](C)CN[C@H](C)[C@H]2NC(=O)O[C@@]21C (stereo partly shown) [Compound 113, 3-Descladinosyl-3-oxo-6-O-methyl-N9a-desmethyl-11,12-dideoxy-12,11-(oxycarbonylimino)-6′-(2-methylpropan-2-ol-amino) Azithromycin] | 8 to 32 (≈ 11.4 to 45.7 µM) | ≥ 32 | ≥ 32 | ≥ 32 | ≥ 32
9 | CC[C@H]1OC(=O)[C@@]2(C)CCOC(C)(C[C@@H](C)CN(C)[C@H](C)[C@H]3NC(=O)O[C@@]31C)[C@H](O[C@@H]1O[C@H](CN(C)C3CC3)C[C@H](N(C)C)[C@H]1O)[C@@H](C)C2=O [Compound 209] | ≤ 4 | ≤ 4 | ≥ 32 | 8 to 32 (≈ 11.3 to 45.1 µM) | ≤ 4
10 | CC[C@H]1OC(=O)[C@@]2(C)CCOC(C)(C[C@@H](C)CN[C@H](C)[C@H]3NC(=O)O[C@@]31C)[C@H](O[C@@H]1OC(C)CC(N(C)C)C1O)[C@@H](C)C2=O (stereo partly shown) [Compound 219] | ≤ 4 | ≤ 4 | ≥ 32 | 8 to 32 (≈ 12.8 to 51.1 µM) | ≤ 4
11 | CCNCC1CC(N(C)C)C(O)C(O[C@@H]2[C@@H](C)C(=O)C(C)C(=O)O[C@H](CC)[C@@]3(C)OC(=O)N[C@@H]3[C@@H](C)NC[C@H](C)C[C@@]2(C)OC)O1 (stereo partly shown) [Compound 108, 3-Descladinosyl-3-oxo-6-O-methyl-N9a-desmethyl-11,12-dideoxy-12,11-(oxycarbonylimino)-6′-ethylamino azithromycin] | 8 to 32 (≈ 12.2 to 48.7 µM) | ≥ 32 | ≥ 32 | ≥ 32 | ≥ 32
12 | CC[C@H]1OC(=O)C(C)C(=O)[C@H](C)[C@@H](O[C@@H]2O[C@H](C(C)NCC3CC3)CC(N(C)C)[C@H]2O)[C@](C)(OC)C[C@@H](C)CN[C@H](C)[C@H]2NC(=O)O[C@@]21C (stereo partly drawn) [Compound 178, 3-Descladinosyl-3-oxo-6-O-methyl-N9a-desmethyl-11,12-dideoxy-12,11-(oxycarbonylimino)-6′-((R,S)-(cyclopropylmethylamino)ethyl) Azithromycin] | ≤ 4 | 8 to 32 (≈ 11.5 to 45.9 µM) | ≥ 32 | ≥ 32 | ≥ 32
13 | CC[C@H]1OC(=O)[C@@](C)(F)C(=O)[C@H](C)[C@@H](O[C@@H]2OC(CNCc3cccnc3)CC(N(C)C)C2O)[C@](C)(OC)C[C@@H](C)C(=O)[C@H](C)[C@H]2NC(=O)O[C@@]21C (stereo partly shown) [Compound 101] | ≥ 32 | ≥ 32 | ≥ 32 | ≥ 32 | ≤ 4
14 | CC[C@H]1OC(=O)C(C)C(=O)[C@H](C)[C@@H](O[C@@H]2OC(CNCc3ccc4nccnc4c3)CC(N(C)C)C2O)[C@](C)(OC)C[C@@H](C)CN[C@H](C)[C@H]2NC(=O)O[C@@]21C (stereo partly shown) [Compound 23] | ≤ 4 | ≥ 32 | ≥ 32 | ≥ 32 | ≥ 32
15 | CC[C@H]1OC(=O)C(C)C(=O)[C@H](C)[C@@H](OC2OC(CN3CCC(C)(C)CC3)CC(N(C)C)C2O)[C@](C)(OC)C[C@@H](C)CN[C@H](C)[C@H]2NC(=O)O[C@@]21C (stereo partly shown) [Compound 138, 3-Desdadinosyl-3-oxo-6-O-methyl-N9a-desmethyl-11,12-dideoxy-12,11-(oxycarbonylimino)-6′-(4″,4″-dimethylpiperidin-1-yl) Azithromycin] | ≤ 4 | ≥ 32 | ≥ 32 | ≥ 32 | ≥ 32
16 | CC[C@H]1OC(=O)[C@@]2(C)CCOC(C)(C[C@@H](C)CN(C)[C@H](C)[C@H]3NC(=O)O[C@@]31C)[C@H](O[C@@H]1O[C@H](CNC3CC3)C[C@H](N(C)C)[C@H]1O)[C@@H](C)C2=O [Compound 208] | ≤ 4 | ≤ 4 | ≥ 32 | 8 to 32 (≈ 11.5 to 46 µM) | ≤ 4
17 | CC[C@H]1OC(=O)[C@@]2(C)CCO[C@](C)(C[C@@H](C)CN[C@H](C)[C@H]3NC(=O)O[C@@]31C)[C@H](O[C@@H]1O[C@H](CN3CCCCC3)C[C@H](N(C)C)[C@H]1O)[C@@H](C)C2=O [Compound 199] | ≥ 32 | ≥ 32 | ≥ 32 | ≥ 32 | ≥ 32
18 | CC[C@H]1OC(=O)C(C)C(=O)[C@H](C)[C@@H](O[C@@H]2OC(CNc3ccc(Cl)cc3)CC(N(C)C)C2O)[C@](C)(OC)C[C@@H](C)CN[C@H](C)[C@H]2NC(=O)O[C@@]21C (stereo partly shown) [Compound 49] | 8 to 32 (≈ 10.8 to 43.3 µM) | ≥ 32 | ≥ 32 | ≥ 32 | 8 to 32 (≈ 10.8 to 43.3 µM)
19 | CC[C@H]1OC(=O)C(C)C(=O)[C@H](C)[C@@H](O[C@@H]2O[C@H](CNCC3CC3)CC(N(C)C)[C@H]2O)[C@](C)(OC)C[C@@H](C)CN(C)[C@H](C)[C@H]2NC(=O)O[C@@]21C (stereo partly shown) [Compound 162, 3-Descladinosyl-3-oxo-6-O-methyl-11,12-dideoxy-12,11-(oxycarbonylimino)-6′-cyclopropylmethylamino Azithromycin] | ≤ 4 | 8 to 32 (≈ 11.5 to 45.9 µM) | ≥ 32 | ≥ 32 | ≥ 32
20 | CC[C@H]1OC(=O)C(C)C(=O)[C@H](C)[C@@H](OC2OC(CN(C)C(C)C)CC(N(C)C)C2O)[C@](C)(OC)C[C@@H](C)CN[C@H](C)[C@H]2NC(=O)O[C@@]21C (stereo partly shown) [Compound 154, 3-Desdadinosyl-3-oxo-6-O-methyl-N9a-desmethyl-11,12-dideoxy-12,11-(oxycarbonylimino)-6′-isopropylmethylamino Azithromycin] | ≤ 4 | 8 to 32 (≈ 11.7 to 46.7 µM) | ≥ 32 | ≥ 32 | ≥ 32
21 | CC[C@H]1OC(=O)C(C)C(=O)[C@H](C)[C@@H](OC2OC(CNCCN(C)C)CC(N(C)C)C2O)[C@](C)(OC)C[C@@H](C)CN[C@H](C)[C@H]2NC(=O)O[C@@]21C (stereo partly shown) [Compound 130, 3-Descladinosyl-3-oxo-6-O-methyl-N9a-desmethyl-11,12-dideoxy-12,11-(oxycarbonylimino)-6′-[(2-dimethylamino)ethylamino]Azithromycin] | ≥ 32 | ≥ 32 | ≥ 32 | ≥ 32 | ≥ 32
22 | CC[C@H]1OC(=O)C(C)C(=O)[C@H](C)[C@@H](OC2OC(CNCC(N)=O)CC(N(C)C)C2O)[C@](C)(OC)C[C@@H](C)CN[C@H](C)[C@H]2NC(=O)O[C@@]21C (stereo partly shown) [Compound 116, 3-Descladinosyl-3-oxo-6-O-methyl-N9a-desmethyl-11,12-dideoxy-12,11-(oxycarbonylimino)-6′-(N-acetamidylamino) Azithromycin] | ≤ 4 | ≥ 32 | ≥ 32 | ≥ 32 | ≥ 32
23 | CC[C@H]1OC(=O)C(C)C(=O)[C@H](C)[C@@H](OC2OC(CNCCC(F)(F)F)CC(N(C)C)C2O)[C@](C)(OC)C[C@@H](C)CN[C@H](C)[C@H]2NC(=O)O[C@@]21C (stereo partly shown) [Compound 142, 3-Descladinosyl-3-oxo-6-O-methyl-N9a-desmethyl-11,12-dideoxy-12,11-(oxycarbonylimino)-6′-trifluoropropylamino Azithromycin] | ≤ 4 | 8 to 32 (≈ 11 to 44.1 µM) | ≥ 32 | ≥ 32 | 8 to 32 (≈ 11 to 44.1 µM)
